Results on five molecules are retold here after ChEMBL document CHEMBL2331314, “Dorsamin-A's, glycerolipids carrying a dehydrophenylalanine ester moiety from the seed-eating larvae of the bruchid beetle Bruchidius dorsalis” (J Nat Prod, 2013).

Each structure is given as a SMILES string.

The nature of the assay: Antioxidant activity assessed as concentration required to 50 % ABTS radical scavenging activity absorbance at 734 nm. The assay is classed as functional.

In the case of `COC(=O)/C(N)=C/c1ccccc1`, the Activity amounted to 9.6 µM. As for `CCCCCCCC/C=C/CCCCCCCC(=O)OC[C@H](COC(=O)/C(N)=C/c1ccccc1)OC(=O)CCCCCCC/C=C/CCCCCCCC`, the Activity is 11 µM. As for `COC(=O)/C=C/c1ccccc1`, the figure is more than 1000 µM; as for `Cc1c(C)c2c(c(C)c1O)CCC(C)(C(=O)O)O2` (stereo not given), 19 µM. On to `COC(=O)C(=O)Cc1ccccc1`, for which the Activity worked out at 8.8 µM.
